Source: PubChem BioAssay (NCI)
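These data come from cells grown in 96-well plates and exposed to compound for 48 hours at five concentrations. GI50 marks 50% less growth. At the TGI there is no net growth.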

Legend:
Assay in all cases: NCI anticancer screen, dose series, 48 h
786-0 renal = tested on: 786-0 renal
A498 renal = tested on: A498 renal
A549 NSCLC = tested on: A549 NSCLC
ACHN renal = tested on: ACHN renal
COLO 205 colon = tested on: COLO 205 colon
DU-145 prostate = tested on: DU-145 prostate
EKVX NSCLC = tested on: EKVX NSCLC
HCC-2998 colon = tested on: HCC-2998 colon
HCT-15 colon = tested on: HCT-15 colon
HL-60(TB) leukemia = tested on: HL-60(TB) leukemia
HOP-62 NSCLC = tested on: HOP-62 NSCLC
HOP-92 NSCLC = tested on: HOP-92 NSCLC
HS 578T breast = tested on: HS 578T breast
HT29 colon = tested on: HT29 colon
IGROV1 ovarian = tested on: IGROV1 ovarian
K-562 leukemia = tested on: K-562 leukemia
KM12 colon = tested on: KM12 colon
M14 melanoma = tested on: M14 melanoma
MALME-3M melanoma = tested on: MALME-3M melanoma
MCF7 breast = tested on: MCF7 breast
MDA-MB-231 breast = tested on: MDA-MB-231 breast
MOLT-4 leukemia = tested on: MOLT-4 leukemia
NCI-H226 lung = tested on: NCI-H226 lung
NCI-H23 lung = tested on: NCI-H23 lung
NCI-H460 lung = tested on: NCI-H460 lung
NCI-H522 lung = tested on: NCI-H522 lung
NCI/ADR-RES ovarian = tested on: NCI/ADR-RES ovarian
OVCAR-4 ovarian = tested on: OVCAR-4 ovarian
OVCAR-5 ovarian = tested on: OVCAR-5 ovarian
OVCAR-8 ovarian = tested on: OVCAR-8 ovarian
PC-3 prostate = tested on: PC-3 prostate
RPMI-8226 leukemia = tested on: RPMI-8226 leukemia
RXF 393 renal = tested on: RXF 393 renal
SF-268 CNS = tested on: SF-268 CNS
SK-MEL-2 melanoma = tested on: SK-MEL-2 melanoma
SK-MEL-28 melanoma = tested on: SK-MEL-28 melanoma
SK-MEL-5 melanoma = tested on: SK-MEL-5 melanoma
SK-OV-3 ovarian = tested on: SK-OV-3 ovarian
SN12C renal = tested on: SN12C renal
SNB-19 CNS = tested on: SNB-19 CNS
SNB-75 CNS = tested on: SNB-75 CNS
SR leukemia = tested on: SR leukemia
SW-620 colon = tested on: SW-620 colon
T-47D breast = tested on: T-47D breast
TK-10 renal = tested on: TK-10 renal
U251 CNS = tested on: U251 CNS
UACC-257 melanoma = tested on: UACC-257 melanoma
UACC-62 melanoma = tested on: UACC-62 melanoma
UO-31 renal = tested on: UO-31 renal
BT-549 breast = tested on: BT-549 breast
CAKI-1 renal = tested on: CAKI-1 renal
CCRF-CEM leukemia = tested on: CCRF-CEM leukemia
HCT-116 colon = tested on: HCT-116 colon
LOX IMVI melanoma = tested on: LOX IMVI melanoma
MDA-MB-435 = tested on: MDA-MB-435
OVCAR-3 ovarian = tested on: OVCAR-3 ovarian
SF-539 CNS = tested on: SF-539 CNS

CC(C)(C)c1ccc(/C=N/NC(=O)CSCC(=O)N/N=C/c2ccc(C(C)(C)C)cc2)cc1
TGI (786-0 renal): 4.4 µM | TGI (A498 renal): 8.67 µM | TGI (A549 NSCLC): 11.6 µM | TGI (ACHN renal): 13.5 µM | TGI (COLO 205 colon): 3.7 µM | TGI (DU-145 prostate): > 100 µM | TGI (EKVX NSCLC): 19.8 µM | TGI (HCC-2998 colon): 4.8 µM | TGI (HCT-15 colon): 15.8 µM | TGI (HL-60(TB) leukemia): 5.21 µM | TGI (HOP-62 NSCLC): 5.84 µM | TGI (HOP-92 NSCLC): 38.9 µM | TGI (HS 578T breast): 7.61 µM | TGI (HT29 colon): 3.87 µM | TGI (IGROV1 ovarian): 10.4 µM | TGI (K-562 leukemia): 6.7 µM | TGI (KM12 colon): 6.18 µM | TGI (M14 melanoma): 3.89 µM | TGI (MALME-3M melanoma): 24.8 µM | TGI (MCF7 breast): 6.05 µM | TGI (MDA-MB-231 breast): 2.43 µM | TGI (MOLT-4 leukemia): 5.02 µM | TGI (NCI-H226 lung): 4.93 µM | TGI (NCI-H23 lung): 6.01 µM | TGI (NCI-H460 lung): 15 µM | TGI (NCI-H522 lung): 21.9 µM | TGI (NCI/ADR-RES ovarian): 15.5 µM | TGI (OVCAR-4 ovarian): > 100 µM | TGI (OVCAR-5 ovarian): 12.5 µM | TGI (OVCAR-8 ovarian): 6.49 µM | TGI (PC-3 prostate): 18.2 µM | TGI (RPMI-8226 leukemia): > 100 µM | TGI (RXF 393 renal): 4.29 µM | TGI (SF-268 CNS): 10.9 µM | TGI (SK-MEL-2 melanoma): 5.72 µM | TGI (SK-MEL-28 melanoma): 20.6 µM | TGI (SK-MEL-5 melanoma): 4.3 µM | TGI (SK-OV-3 ovarian): 19.4 µM | TGI (SN12C renal): 4.82 µM | TGI (SNB-19 CNS): 17.2 µM | TGI (SNB-75 CNS): 20.1 µM | TGI (SR leukemia): 3.76 µM | TGI (SW-620 colon): 6.11 µM | TGI (T-47D breast): 26.3 µM | TGI (TK-10 renal): 16.6 µM | TGI (U251 CNS): 5.87 µM | TGI (UACC-257 melanoma): 15.2 µM | TGI (UACC-62 melanoma): 32 µM | TGI (UO-31 renal): 15.7 µM

C=C(C)[C@@H]1CC[C@]2(CO)CC[C@]3(C)[C@H](CC[C@@H]4[C@@]5(C)CCC(NCCc6ccc(O)cc6)C(C)(C)[C@@H]5CC[C@]43C)[C@@H]12 (stereo partly specified)
GI50 (786-0 renal): 1.66 µM | TGI (786-0 renal): 3.26 µM | GI50 (A498 renal): 1.32 µM | TGI (A498 renal): 2.69 µM | GI50 (A549 NSCLC): 1.48 µM | TGI (A549 NSCLC): 3 µM | GI50 (ACHN renal): 1.62 µM | TGI (ACHN renal): 2.97 µM | GI50 (BT-549 breast): 1.75 µM | TGI (BT-549 breast): 3.27 µM | GI50 (CAKI-1 renal): 1.54 µM | TGI (CAKI-1 renal): 2.88 µM | GI50 (CCRF-CEM leukemia): 1.67 µM | TGI (CCRF-CEM leukemia): 4.14 µM | GI50 (COLO 205 colon): 1.12 µM | TGI (COLO 205 colon): 2.68 µM | GI50 (DU-145 prostate): 1.62 µM | TGI (DU-145 prostate): 3.03 µM | GI50 (HCC-2998 colon): 0.97 µM | TGI (HCC-2998 colon): 2.23 µM | GI50 (HCT-116 colon): 1.39 µM | TGI (HCT-116 colon): 2.84 µM | GI50 (HCT-15 colon): 1.23 µM | TGI (HCT-15 colon): 2.68 µM | GI50 (HL-60(TB) leukemia): 1.49 µM | TGI (HL-60(TB) leukemia): 3.67 µM | GI50 (HOP-92 NSCLC): 1.46 µM | TGI (HOP-92 NSCLC): 2.95 µM | GI50 (HT29 colon): 1.09 µM | TGI (HT29 colon): 2.49 µM | GI50 (K-562 leukemia): 0.31 µM | TGI (K-562 leukemia): 1.66 µM | GI50 (KM12 colon): 1.64 µM | TGI (KM12 colon): 3.29 µM | GI50 (LOX IMVI melanoma): 0.783 µM | TGI (LOX IMVI melanoma): 2.09 µM | GI50 (M14 melanoma): 1.6 µM | TGI (M14 melanoma): 3.05 µM | GI50 (MCF7 breast): 0.912 µM | TGI (MCF7 breast): 2.57 µM | GI50 (MDA-MB-231 breast): 1.64 µM | TGI (MDA-MB-231 breast): 3.09 µM | GI50 (MDA-MB-435): 1.43 µM | TGI (MDA-MB-435): 2.77 µM | GI50 (MOLT-4 leukemia): 1.38 µM | TGI (MOLT-4 leukemia): 3.38 µM | GI50 (NCI-H23 lung): 1.79 µM | TGI (NCI-H23 lung): 3.35 µM | GI50 (NCI-H460 lung): 1.53 µM | TGI (NCI-H460 lung): 3 µM | GI50 (NCI-H522 lung): 1.72 µM | TGI (NCI-H522 lung): 3.33 µM | GI50 (NCI/ADR-RES ovarian): 1.63 µM | TGI (NCI/ADR-RES ovarian): 3.45 µM | GI50 (OVCAR-3 ovarian): 1.69 µM | TGI (OVCAR-3 ovarian): 3.21 µM | GI50 (OVCAR-4 ovarian): 1.7 µM | TGI (OVCAR-4 ovarian): 3.18 µM | GI50 (OVCAR-5 ovarian): 1.59 µM | TGI (OVCAR-5 ovarian): 2.96 µM | GI50 (PC-3 prostate): 1.3 µM | TGI (PC-3 prostate): 2.64 µM | GI50 (SF-268 CNS): 1.86 µM | TGI (SF-268 CNS): 3.67 µM | GI50 (SF-539 CNS): 1.63 µM | TGI (SF-539 CNS): 3.04 µM | GI50 (SK-MEL-2 melanoma): 1.68 µM | TGI (SK-MEL-2 melanoma): 3.19 µM | GI50 (SK-MEL-28 melanoma): 1.58 µM | TGI (SK-MEL-28 melanoma): 3 µM | GI50 (SK-MEL-5 melanoma): 1.47 µM | TGI (SK-MEL-5 melanoma): 2.8 µM | GI50 (SK-OV-3 ovarian): 1.77 µM | TGI (SK-OV-3 ovarian): 3.21 µM | GI50 (SN12C renal): 1.67 µM | TGI (SN12C renal): 3.19 µM | GI50 (SR leukemia): 0.334 µM | TGI (SR leukemia): 1.07 µM | GI50 (SW-620 colon): 1.41 µM | TGI (SW-620 colon): 2.89 µM | GI50 (T-47D breast): 1.51 µM | TGI (T-47D breast): 3.19 µM | GI50 (TK-10 renal): 1.65 µM | TGI (TK-10 renal): 3.13 µM | GI50 (U251 CNS): 1.56 µM | TGI (U251 CNS): 2.98 µM | GI50 (UACC-257 melanoma): 1.73 µM | TGI (UACC-257 melanoma): 3.37 µM | GI50 (UACC-62 melanoma): 1.63 µM | TGI (UACC-62 melanoma): 3.09 µM | GI50 (UO-31 renal): 1.32 µM | TGI (UO-31 renal): 2.69 µM
